Results as given in article PMC6550177, “Statuses of food-derived glutathione in intestine, blood, and liver of rat” (NPJ Science of Food, 2018).
“Also recorded” adds a separate entry of the source.

Experiments:
[1] = Food-derived glutathione in washed intestine and liver after oral gavage of 13C-labeled compound (LC-MS/MS); conditions: rat
Experimental: Rats were acclimatized for a week, divided into four groups, and were given 1 mL of glutathione-1-^13C (50 mg/kg body weight) or NAC-1-^13C (50 mg/kg body weight) solutions using an oral gavage.
Portions of the thoroughly washed intestines and livers were homogenized in the same weight of PBS using a BioMasher (Nippi, Tokyo, Japan). The obtained homogenates were then mixed with the same volumes of 10% (v/v) TCA-4% (v/v) 2-mercaptoethanol and allowed to stand for 30 min at 25°C. The supernatant was collected and used to determine the total amounts of glutathione and related peptides. Another set of intestines and livers were homogenized in the same volume of PBS containing 20 mM NEM and then allowed to stand for 10 min at 25 °C. The homogenate were further diluted with another three fold volumes of PBS without NEM, and mixed with the same volume of 10% (v/v) TCA. […] The precipitate was washed with the same weight of 10% TCA three times, and the protein-bound form of glutathione was extracted with the same weight of 10% TCA-4% 2-mercaptoethanol as described above.
The 5% TCA–2% 2-mercaptoethanol extracts (50 μL) were dried under vacuum to remove excess amounts of 2-mercaptoethanol; thereafter, 20 μL of an alkaline solution was added to neutralize the extracts and they were again dried under vacuum.
With NEM, glutathione disulfide was conjugated with two molecules of AccQs, and the resultant AccQ derivative of glutathione disulfide was subjected to the LC-MS/MS as described above.

[2] = rat
Experimental: (§1) All animals were treated and cared in accordance with the National Institutes of Health’s guidelines for the use of experimental animals. All experimental procedures were approved by the Animal Care Committee of Kyoto Prefectural University (No. KPU260400-260421). Seven-week-old Wister rats (body weight 200–220 g) were housed in a 12-h light-dark cycle and allowed free access to standard rat chow and water. […] The plasma was prepared by centrifugation at 800×g for 10 min at 4 °C. The liver and small intestines were taken from the rats. The intestines were flushed with about 40 mL of cold PBS to remove its contents. The blood in the liver was purged by infusing cold PBS into the portal vein. Samples were stored at −80 °C until use.
(§2) The plasma (100 μL) was mixed with three fold volumes of ethanol. The supernatant and precipitate obtained were harvested by centrifugation at 14,200×g at 4 °C for 10 min. The supernatant was referred to as the low-molecular-weight fraction of the plasma. Aliquots of the low-molecular-weight fraction (300 μL each) were dried under vacuum, and processed using two methods. Some dried aliquots were treated with 50 μL of 5% TCA-2% 2-mercaptoethanol solution for 30 min and used in determining the total glutathione and related peptides. Free and bound-form glutathione were bound to 2-mercaptoethnol.[6] Other dried aliquots of the fraction (300 μL) were treated with 50 μL of 20 mM NEM in PBS for 10 min. Only free glutathione bound to NEM, as NEM has no reducing activity. The reaction was terminated by adding 50 μL of 5% TCA solution. The NEM-treated fraction was used in determination of the reduced-form of glutathione and glutathione disulfide.
(§3) The ethanol precipitate of the plasma was further washed with 200 μL of 75% (v/v) ethanol twice. The residue was collected by centrifugation at 14,200×g at 4 °C. Protein-bound glutathione and related peptides were liberated from the residue by extracting with 100 μL of 5% TCA-2% 2-mercaptoethanol with occasional agitation for 30 min. The supernatant obtained after centrifugation was used to determine the protein-bound form of glutathione and related peptides.[6]
(§4) The 5% TCA–2% 2-mercaptoethanol extracts (50 μL) were dried under vacuum to remove excess amounts of 2-mercaptoethanol; thereafter, 20 μL of an alkaline solution was added to neutralize the extracts and they were again dried under vacuum. The residues were mixed with 20 μL of 20 mM HCl, 60 μL of the sodium borate buffer provided with the AccQ Tag Ultra Derivatization Kit, and 20 μL of 0.3% (w/v) AccQ acetonitrile solution and heated at 50 °C for 10 min to obtain their AccQ derivatives. Then, the reaction mixtures were diluted with adequate amounts of 5 mM sodium phosphate buffer (pH 7.4) containing 10% (v/v) acetonitrile and filtered using a 0.45-μm filter (Cosmonice filter W, Nacalai Tesque). The filtrates were subjected to LC-MS/MS using a 3200 QTRAP system (AB SCIEX, Framingham, MA) as previously described.[6]
(§5) Without 2-mercaptoethanol, the sulfhydryl group of glutathione was conjugated with NEM in PBS. The NEM-glutathione derivative was directly subjected to LC-MS/MS to determine the reduced-form of glutathione. With NEM, glutathione disulfide was conjugated with two molecules of AccQs, and the resultant AccQ derivative of glutathione disulfide was subjected to the LC-MS/MS as described above. Reduced-form glutathione (2 nmol) was added to the ethanol-soluble fraction of plasma from portal blood.

[3] = patients with non-alcoholic fatty liver disease, oral administration; cited from earlier work
[4] = mice, 12 weeks supplementation, 50 mg/kg body weight, preliminary experiment
[5] = humans, dietary supplementation; cited from earlier work
[6] = system: peroxisome proliferator-activated receptor gamma coactivator 1-alpha (PGC-1α); conditions: cited from earlier work
in vivo = conditions: Wister, rat, po, 50 mg/kg, 60 min after ingestion
Experimental: as §1, §2, §3, §4, §5

[7] = oral administration, vs placebo controls; cited from earlier work
[8] = animals, oral administration; cited from earlier work
[9] = oral administration, vs placebo controls; cited from earlier work; remark: listed apart in the source

## CC(=O)N[C@@H](CS)[13C](=O)O [NAC, N-acetylcysteine-1-^13C]
[1]; oral 50 mg/kg
  Food-derived glutathione in intestines and liver after ingestion of NAC: present
[2]; oral 50 mg/kg, within 120 min, 50 mg/kg
  NAC-derived glutathione (and fragment peptides) in blood plasma: not detected; also recorded: no significant amounts

## N[C@@H](CCC(=O)N[C@@H](CS)C(=O)NCC(=O)O)C(=O)O [glutathione, γ-L-glutamyl-L-cysteinyl-glycine]
[1]
  Food-derived Cys-Gly, γ-Glu-Cys and glutathione disulfide in the liver without blood: negligible amounts
[1]; 120 min after administration at 50 mg/kg
  Food-derived glutathione as share of total glutathione in the liver: approximately 5%
[3]
  Plasma alanine aminotransferase and free fatty acid levels: significantly reduce
[4]
  Liver glutathione levels compared to controls: did not significantly increase
[5]
  Protein-bound glutathione in the blood plasma: increase
[6]; previous animal experiment
  PGC-1α / mitochondrial biogenesis: enhances mitochondrial biogenesis by increasing
In vivo; Food-derived glutathione level in low-molecular-weight fraction of blood from hepatic portal vein
  concentration at 60 min: ~400 nM
In vivo; Food-derived glutathione level in low-molecular-weight fraction of blood from inferior vena cava
  concentration at 60 min: < 100 nM
[2]; after oral glutathione
  Food-derived glutathione in protein-bound fraction, plasma from portal vein vs inferior vena cava: insignificantly different
[2]; after oral glutathione, LC-MS/MS multi-reaction monitoring
  Reduced-form glutathione and glutathione disulfide in low-molecular-weight fraction of plasma from portal vein: no reduced-form glutathione and glutathione disulfide were detected
[7]
  Exercise-induced fatigue: reduce
[8]
  Liver glutathione level: increase the liver glutathione level
[9]
  Melanin indices on the skin: reduce melanin indices on the skin

## N[C@@H](CCC(=O)N[C@@H](CS)[13C](=O)NCC(=O)O)C(=O)O [glutathione-1-^13C, Glutathione-1-^13C]
[1]; in vivo, po
  Food-derived Cys-Gly and γ-Glu-Cys in intestines and liver: negligible amounts
[1]; in vivo, po, 50 mg/kg
  Food-derived glutathione content in intestine: approximately 60 μmol/kg
  Food-derived glutathione content in liver: ~300 µmol/kg
[2]; in vivo, po
  Food-derived Cys-Gly and γ-Glu-Cys in plasma: significant amounts
[2]; in vivo, po, 50 mg/kg
  Status (form) of food-derived glutathione in blood plasma: conjugated with proteins and low-molecular-weight thiol compounds

## O=C1O[C@H]([C@@H](O)CO)C(O)=C1O [vitamin C]
[6]
  Exercise-induced increase of PGC-1α: suppress

## vitamin E
[6]
  Exercise-induced increase of PGC-1α: suppress
